Reference: patent publication EP1198478B1, “SOMATOSTATIN ANALOGS AND THEIR USE FOR THE TREATMENT OF CANCER” (Dabur Research Foundation, priority 2000, dated 2002)
Values joined by “and” are separate entries in the source; they are usually repeats but may differ in a detail not shown here. Equal values may be shown once.

Assays:
[1] = system: human colon adenocarcinoma (PTC) xenografts; assay: In vivo antitumor activity on primary tumor (colon) xenografted mice; set-up: species or system Balb/c athymic mice; settings: for tumor volumes, Avg: average of three animals; for tumor volumes of individual tumor bearing animals: individual animals (IV, V, VI for SEQ ID NO: 2; I, II, III for SEQ ID NO: 3)
Description: The antitumor activity of SEQ ID NO:2 and SEQ ID NO:3 was studied in human colon adenocarcinoma (PTC) xenografts in nude mice. PTC tumor xenografts were grown in Balb/c athymic mice by subcutaneous inoculation of a single cell suspension of PTC cells (15 X10^6 cells/ 100µl). The tumor bearing animals were divided into 3 groups of three animals each including one group comprising untreated control animals. Treatment with novel somatostatin analogs was initiated when the average tumor volumes, as measured using a vernier caliper, were between 400-800 mm^3. Solutions of SEQ ID NO:2 and SEQ ID NO:3 were prepared at a concentration of 85 µg/ml and intravenously administered to the assigned group of tumor bearing animals at a dose of 8.5 µg/100 µl twice a day so that the total dose of […] was administered to each animal. The treatment was continued for a period of 10 days.
The antitumor activity of the compounds was monitored by measuring tumor volumes every fourth day using the formula W*W*L*.04 (W = smaller diameter, L = larger diameter). The percentage inhibition of tumor growth was calculated using the formula (1-tumor volume-treated/tumor volume control)* 100.

U87MG (Glioblastoma) = assay: MTT cytotoxicity assay, U87MG cells; type: cell-based; settings: 48 hours
Text: (§1) The cytotoxic effect of peptides SEQ ID NO: 2, SEQ ID NO: 3, SEQ ID NO: 6, and SEQ ID NO: 9, was studied by MTT assay which is based on the principle of uptake of MTT [3-[4,5-dimethylthiazol-2-yl]-2,5-diphenyl tetrazolium bromide], a tetrazolium salt by the metabolically active cells where it is metabolized by active mitochondria into a blue colored formazan product which can be read spectrophotometrically. Briefly, tumor cells PTC (primary human colon cancer cell line), KB (Oral squamous), U87MG (Glioblastoma), HBL100 (Breast), HeP2 (Laryngeal), ECV304 (Endothelial), PA-1 (Ovary) and L132 (Lung) were incubated with the peptide analogs for 48 hours at 37°C in a 96-well culture plate, followed by the addition of 100 µg MTT and further incubation of 1 hour. The formazan crystals formed inside the cells were dissolved with a detergent comprising 10% Sodium dodecyl sulfate and 0.01 N HCl and optical density read on a multiscan ELISA reader. The optical density was directly proportional to the number of proliferating and metabolically active cells.

KB (Oral squamous) = assay: MTT cytotoxicity assay, KB cells; type: cell-based; settings: 48 hours
Text: as §1

PA-1 (Ovary) = assay: MTT cytotoxicity assay, PA-1 cells; type: cell-based; settings: 48 hours
Text: as §1

HBL100 (Breast) = assay: MTT cytotoxicity assay, HBL100 cells; type: cell-based; settings: 48 hours
Text: as §1

[2] = system: PTC (primary human colon cancer cell line); assay: MTT cytotoxicity assay, PTC cells; type: cell-based; settings: 48 hours
Text: as §1

HeP2 (Laryngeal) = assay: MTT cytotoxicity assay, HeP2 cells; type: cell-based; settings: 48 hours
Text: as §1

L132 (Lung) = assay: MTT cytotoxicity assay, L132 cells; type: cell-based; settings: 48 hours
Text: as §1

ECV304 (Endothelial) = assay: MTT cytotoxicity assay, ECV304 cells; type: cell-based; settings: 48 hours
Text: as §1

[3] = day 9, intravenously 8.5 µg/100 µl twice a day, 10 days
[4] = day 13, intravenously 8.5 µg/100 µl twice a day, 10 days
[5] = day 18, intravenously 8.5 µg/100 µl twice a day, 10 days
[6] = day 21, intravenously 8.5 µg/100 µl twice a day, 10 days

D-Phe-Cys-Tyr-D-Trp-Orn-Ac5c-Pen-Thr-NH2 [SEQ ID NO: 3]
tumor volumes, Avg ([1]; day 0, before treatment): 0 mm^3
tumor volumes of individual tumor bearing animals ([1]; day 0, before treatment): 0 mm^3
tumor volumes, Avg [1, 3]: 552 mm^3
tumor volumes of individual tumor bearing animals [1, 3]: 560 mm^3 and 774 mm^3 and 324 mm^3
tumor volumes, Avg [1, 4]: 1758 mm^3
tumor volumes of individual tumor bearing animals [1, 4]: 1946 mm^3 and 1800 mm^3 and 1530 mm^3
tumor volumes, Avg [1, 5]: 3674 mm^3
tumor volumes of individual tumor bearing animals [1, 5]: 3177 mm^3 and 3610 mm^3 and 4234 mm^3
percentage inhibition of tumor growth ([1]; day 21, as compared to controls, (1-tumor volume-treated/tumor volume control)* 100, intravenously 8.5 µg/100 µl twice a day, 10 days): 54.7%
tumor volumes, Avg [1, 6]: 4080 mm^3
tumor volumes of individual tumor bearing animals [1, 6]: 0 mm^3 and 4939 mm^3 and 7301 mm^3
Percentage cytotoxicity (U87MG (Glioblastoma); 1nM): 44.2 ± 3.5%
Percentage cytotoxicity (U87MG (Glioblastoma); 10 nM): 45.0 ± 2.4%
Percentage cytotoxicity (U87MG (Glioblastoma); 1µM): 28.9 ± 1.2%
Percentage cytotoxicity (U87MG (Glioblastoma); 100n M): 42.4 ± 1.4%
Percentage cytotoxicity (KB (Oral squamous); 1nM): 29.8 ± 1.2%
Percentage cytotoxicity (KB (Oral squamous); 10 nM): 25.0 ± 4.6%
Percentage cytotoxicity (KB (Oral squamous); 1µM): 17.9 ± 1.3%
Percentage cytotoxicity (KB (Oral squamous); 100n M): 19.4 ± 5.2%
Percentage cytotoxicity (PA-1 (Ovary); 1nM): 29.5 ± 1.0%
Percentage cytotoxicity (PA-1 (Ovary); 10 nM): 39.5 ± 3.4%
Percentage cytotoxicity (PA-1 (Ovary); 1µM): 19.5 ± 3.3%
Percentage cytotoxicity (PA-1 (Ovary); 100n M): 38.5 ± 2.2%
Percentage cytotoxicity (HBL100 (Breast); 1nM): 14.6 ± 4.5%
Percentage cytotoxicity (HBL100 (Breast); 10 nM): 17.5 ± 2.8%
Percentage cytotoxicity (HBL100 (Breast); 1µM): 10.6 ± 1.4%
Percentage cytotoxicity (HBL100 (Breast); 100n M): 11.8±3.2%
Percentage cytotoxicity ([2]; 1nM): 15 ± 1.5%
Percentage cytotoxicity ([2]; 10 nM): 11 ± 0.8%
Percentage cytotoxicity ([2]; 1µM): 13 ± 2.3%
Percentage cytotoxicity ([2]; 100n M): 13 ± 1.3%
Percentage cytotoxicity (HeP2 (Laryngeal); 1nM): 13.9 ± 3.6%
Percentage cytotoxicity (HeP2 (Laryngeal); 10 nM): 26.8 ± 4.4%
Percentage cytotoxicity (HeP2 (Laryngeal); 1µM): 10.0 ± 2.4%
Percentage cytotoxicity (HeP2 (Laryngeal); 100n M): 25.8 ± 2.5%
Percentage cytotoxicity (L132 (Lung); 1nM): 19.0 ± 2.2%
Percentage cytotoxicity (L132 (Lung); 10 nM): 28.6 ± 4.2%
Percentage cytotoxicity (L132 (Lung); 1µM): 19.8 ± 5.5%
Percentage cytotoxicity (L132 (Lung); 100n M): 25.9 ± 2.6%
Percentage cytotoxicity (ECV304 (Endothelial); 1nM): 13.9 ± 3.9%
Percentage cytotoxicity (ECV304 (Endothelial); 10 nM): 23.9 ± 1.3%
Percentage cytotoxicity (ECV304 (Endothelial); 1µM): 14.9 ± 1.6%
Percentage cytotoxicity (ECV304 (Endothelial); 100n M): 15.9 ± 2.9%

D-Phe-Cys-Tyr-D-Trp-Orn-Aib-Pen-Thr-NH2 [SEQ ID NO: 9]
Percentage cytotoxicity (U87MG (Glioblastoma); 1nM): 13.9 ± 2.5%
Percentage cytotoxicity (U87MG (Glioblastoma); 10 nM): 29.7 ± 2.4%
Percentage cytotoxicity (U87MG (Glioblastoma); 1µM): 42.9 ± 1.2%
Percentage cytotoxicity (U87MG (Glioblastoma); 100n M): 53.3 ± 1.4%
Percentage cytotoxicity (KB (Oral squamous); 1nM): 28.0 ± 1.6%
Percentage cytotoxicity (KB (Oral squamous); 10 nM): 27.0 ± 4.8%
Percentage cytotoxicity (KB (Oral squamous); 1µM): 12.0 ± 1.2%
Percentage cytotoxicity (KB (Oral squamous); 100n M): 18.0 ± 5.2%
Percentage cytotoxicity (PA-1 (Ovary); 1nM): 4.6 ± 1.0%
Percentage cytotoxicity (PA-1 (Ovary); 10 nM): 12.8 ± 1.4%
Percentage cytotoxicity (PA-1 (Ovary); 1µM): 16.6 ± 3.1%
Percentage cytotoxicity (PA-1 (Ovary); 100n M): 22.7 ± 2.2%
Percentage cytotoxicity (HBL100 (Breast); 1nM): 26.9 ± 2.6%
Percentage cytotoxicity (HBL100 (Breast); 10 nM): 23.9 ± 4.4%
Percentage cytotoxicity (HBL100 (Breast); 1µM): 7.9 ± 1.2%
Percentage cytotoxicity (HBL100 (Breast); 100n M): 14.9 ± 2.2%
Percentage cytotoxicity (HeP2 (Laryngeal); 1nM): 15.6 ± 3.6%
Percentage cytotoxicity (HeP2 (Laryngeal); 10 nM): 21.4 ± 4.4%
Percentage cytotoxicity (HeP2 (Laryngeal); 1µM): 19.9 ± 2.4%
Percentage cytotoxicity (HeP2 (Laryngeal); 100n M): 27.9 ± 2.5%
Percentage cytotoxicity (L132 (Lung); 1nM): 14.9 ± 2.6%
Percentage cytotoxicity (L132 (Lung); 10 nM): 26.1 ± 4.8%
Percentage cytotoxicity (L132 (Lung); 1µM): 12.9 ± 1.8%
Percentage cytotoxicity (L132 (Lung); 100n M): 22.8 ± 2.6%
Percentage cytotoxicity (ECV304 (Endothelial); 1nM): 18.0 ± 2.9%
Percentage cytotoxicity (ECV304 (Endothelial); 10 nM): 23.9 ± 3.1%
Percentage cytotoxicity (ECV304 (Endothelial); 1µM): 12.9 ± 1.6%
Percentage cytotoxicity (ECV304 (Endothelial); 100n M): 19.9 ± 2.6%
